Assay results published in patent publication US20230190695A1, “TRIBUTYRIN SUPPLEMENTATION PROVIDES BENEFITS FOR MENTAL WELLNESS, IMMUNE HEALTH AND FAT METABOLISM” (PHARMAVITE LLC, priority 2021, published 2023).

What was measured:
C57BL/6J mice [1] = assay: Cytokine concentrations in terminal serum; assay type: in vivo; settings: male mice
Description: (§1) A study was conducted to evaluate tributyrin on stress and mood-related behaviors in female and male C57BL/6J mice. The animals were given immediate ad libitum access to water and standard rodent chow and were acclimated to the facility for 7 days. On study day -3, fat and muscle content was measured using nuclear magnetic resonance spectroscopy (NMR: MiniSpec NMR, Bruker LF50 Body Composition Analyzer). On study day 0, the animals were weighed, blood and fecal samples (1-2 pellets/animal) were collected, and the animals were randomized into their specific treatment group. Daily oral gavage of 4 distinct groups commenced as follows: • Treatment 1: daily PBS vehicle + no acute stress before behavioral measures • Treatment 2: daily PBS vehicle + acute stress before behavioral measures • Treatment 3: daily low-dose tributyrin (60 mg/kg/d) + acute stress before behavioral measures • Treatment 4: daily high-dose tributyrin (200 mg/kg/d) + acute stress before behavioral measures
(§2) After 7 weeks of intervention, blood and fecal samples were collected on study day 49, and fecal collection was repeated on study days 50 and 52. On study day 52, animals assigned to the acute stress groups were acutely restrained for two hours while unstressed animals were housed singly for 140 minutes in fresh cages. […] All animals were then tested in the forced swim test (FST). A retro-orbital blood sample was collected within 15 to 30 minutes after the FST, and fecal pellets were collected (for corticosterone measurements). On study day 53, the animals were weighed, and body composition by NMR was performed a second time. The study was terminated on study day 56, blood was collected and necropsies were performed. Serum cytokine levels were evaluated in terminal serum.

[2] = tested on: combined microbiota of 10 healthy adult human donors; assay: Colonic simulation, in vitro gut simulation model: butyrate and microbial metabolites; set-up: Indole-3-acetic acid / Indole-3-aldehyde / Indole-3-ethanol / Tryptophan / 5-Hydroxyindoleacetic acid / Tryptamine: unit not given here; settings: for 1-Acetyl-3-indolecarboxyaldehyde / 5-Hydroxyindoleacetic acid / Indole / Indole-3-acetic acid / Indole-3-acrylic acid / Melatonin / Serotonin / Skatole / Tryptamine / Tryptophan / Indole-3-ethanol / Indole-3-aldehyde / Indole-3-propionic acid: Treatment; for average increase of butyrate as compared to the control period / average increase of butyrate: highest dose (59% of 1000 mg/day); for average increase of butyrate: vs control period
Description: The impact of two doses of tributyrin on gut microbiota composition and microbial metabolites was studied in an in vitro gut simulation model using combined microbiota of 10 healthy adult human donors (5 males, 5 females, 30-60 years old, BMI<30). The retention times and pH ranges were optimized in order to obtain results that are representative for a full GIT simulation. A stabilization period was followed by a two-week control period and three weeks of treatment, where 59% of 300 mg/day or 59% of 1000 mg/day was administered daily (based on release profile described above). Samples were collected at the end of control period and treatment period. Both doses were performed in biological triplicate to account for biological variability.

C57BL/6J mice [3] = assay: Fecal corticosterone after forced swim test; assay type: in vivo; settings: male mice; 200 mg/kg/d; vs stressed vehicle control
Description: as §1
After 7 weeks of intervention, blood and fecal samples were collected on study day 49, and fecal collection was repeated on study days 50 and 52. On study day 52, animals assigned to the acute stress groups were acutely restrained for two hours while unstressed animals were housed singly for 140 minutes in fresh cages. […] Serum cytokine levels were evaluated in terminal serum. […]

C57BL/6J mice [4] = assay: Body weight and body composition by NMR; assay type: in vivo; settings: for final fat as a percentage of baseline: all mice, vs combined unstressed untreated control
Description: as §1, §2

C57BL/6J mice [5] = assay: Fecal metabolite analysis (GC, UHPLC-HRMS); assay type: in vivo
Description: as §1, §2
Gut microbiota metabolizes ingested food and supplements in the colon thereby producing various metabolites, which have an impact on several host biological processes. These metabolites generated in the colon can be measured in the feces. A panel of metabolites were measured in feces collected from experimental mice 8 weeks post-treatment. Fecal SCFA were measured by Gas Chromatography (GC) and tryptophan metabolites were measured using Ultra High Performance Liquid Chromatography High Resolution Mass Spectrometry (UHPLC-HRMS). Comparisons were made between stressed untreated mice and tributyrin treated stressed mice.

[6] = tested on: Caco-2/THP1 (colonic cells/macrophages) co-culture; assay: Caco-2/THP1 co-culture immunomodulation model; assay type: cell-based
Description: An in vitro Caco-2/THP1 (colonic cells/macrophages) co-culture model was used to assess the effect of microbial metabolites on proinflammatory or ant-inflammatory cytokines and chemokines which serve as markers for immunomodulation.

C57BL/6J mice [7] = assay: Forced swim test (FST) after acute restraint stress; assay type: in vivo; settings: for time immobile in the FST: combined female + male, study day 52; for immobility in the FST: vs sex-matched untreated stressed control
Description: as §1, §2
Forced Swim Test (FST) is a test centered on a rodent’s response to unescapable stress. Results of this test have been interpreted as a measure of susceptibility to negative mood. It is commonly used to measure the effectiveness of antidepressants. Forced swim tests were performed on study day 52 for each cohort of mice.

[8] = tested on: combined microbiota of 10 healthy adult human donors; assay: Colonic simulation, in vitro gut simulation model: microbial composition
Description: The impact of two doses of tributyrin on gut microbiota composition and microbial metabolites was studied in an in vitro gut simulation model using combined microbiota of 10 healthy adult human donors (5 males, 5 females, 30-60 years old, BMI<30). The retention times and pH ranges were optimized in order to obtain results that are representative for a full GIT simulation. A stabilization period was followed by a two-week control period and three weeks of treatment, where 59% of 300 mg/day or 59% of 1000 mg/day was administered daily (based on release profile described above). Samples were collected at the end of control period and treatment period. Both doses were performed in biological triplicate to account for biological variability. […] Higher ratio of Bacteroidetes:Firmicutes is associated with lean phenotype. Tributyrin treatment increases this ratio as illustrated in FIG. 4 and therefore may provide metabolic health benefit. • At species level, importantly, Akkermansia muciniphila and Faecalibacterium prausnitzii were enriched in tributyrin-treated compartments. • Akkermansia muciniphila is an acetate and propionate-producing, mucin-degrading bacteria. Its presence in the gut is associated with health benefits. An inverse relationship- between colonization of Akkermansia muciniphila and inflammatory conditions or obesity have been shown. […] Both Parabacteroides distasonis and Parabacteroides goldsteinii were stimulated in the proximal colon and distal colon for both low and high doses of tributyrin.

[9] = 60 mg/kg/d, vs stressed vehicle control
[10] = Distal Colon, High Dose (59% of 1000 mg/day)
[11] = Distal Colon, Low Dose (59% of 300 mg/day)
[12] = Proximal Colon, High Dose (59% of 1000 mg/day)
[13] = Proximal Colon, Low Dose (59% of 300 mg/day)
[14] = low dose (60 mg/kg/d), 8 weeks post-treatment
[15] = DC-Low (distal colon, low dose)
[16] = PC-High (proximal colon, high dose)
[17] = PC-Low (proximal colon, low dose)
[18] = proximal colon and distal colon, both low and high doses

CCCC(=O)OCC(COC(=O)CCC)OC(=O)CCC [tributyrin]
IL-2 in terminal serum (C57BL/6J mice [1]; 60 mg/kg/d, vs stressed mice): reduced significantly
IL-4 in terminal serum (C57BL/6J mice [1]; 60 mg/kg/d, vs stressed mice): reduced significantly
IFNγ in terminal serum (C57BL/6J mice [1]; [9]): significantly reduced
MIP-1a in terminal serum (C57BL/6J mice [1]; [9]): significantly reduced
IL-4 in terminal serum (C57BL/6J mice [1]; 200 mg/kg/d, vs stressed mice): reduced significantly
MIP-1a in terminal serum (C57BL/6J mice [1]; 200 mg/kg/d, vs stressed vehicle control): significantly reduced
1-Acetyl-3-indolecarboxyaldehyde [2, 10]: < LOD
5-Hydroxyindoleacetic acid [2, 10]: 0.001
Indole [2, 10]: < LOD
Indole-3-acetic acid [2, 10]: 0.644
Indole-3-acrylic acid [2, 10]: < LOD
Melatonin [2, 10]: < LOD
Serotonin [2, 10]: < LOD
Skatole [2, 10]: < LOD
Tryptamine [2, 10]: 0.175
Tryptophan [2, 10]: 0.095
1-Acetyl-3-indolecarboxyaldehyde [2, 11]: < LOD
5-Hydroxyindoleacetic acid [2, 11]: 0.001
Indole [2, 11]: < LOD
Indole-3-acrylic acid [2, 11]: < LOD
Indole-3-ethanol [2, 11]: 0.284
Melatonin [2, 11]: < LOD
Serotonin [2, 11]: < LOD
Skatole [2, 11]: < LOD
Tryptamine [2, 11]: 0.205
Tryptophan [2, 11]: 0.116
1-Acetyl-3-indolecarboxyaldehyde [2, 12]: < LOD
5-Hydroxyindoleacetic acid [2, 12]: 0.008
Indole [2, 12]: < LOD
Indole-3-acetic acid [2, 12]: 0.916
Indole-3-acrylic acid [2, 12]: < LOD
Indole-3-aldehyde [2, 12]: 0.058
Indole-3-propionic acid [2, 12]: 0.01
Melatonin [2, 12]: < LOD
Serotonin [2, 12]: < LOD
Skatole [2, 12]: < LOD
Tryptamine [2, 12]: 0.105
1-Acetyl-3-indolecarboxyaldehyde [2, 13]: < LOD
5-Hydroxyindoleacetic acid [2, 13]: 0.01
Indole [2, 13]: < LOD
Indole-3-acrylic acid [2, 13]: < LOD
Indole-3-aldehyde [2, 13]: 0.06
Indole-3-ethanol [2, 13]: 0.266
Indole-3-propionic acid [2, 13]: 0.008
Melatonin [2, 13]: < LOD
Serotonin [2, 13]: < LOD
Skatole [2, 13]: < LOD
Tryptamine [2, 13]: 0.118
butyrate levels ([2]; both proximal colon and distal colon, on initiation of treatment): significantly enhanced
average increase of butyrate as compared to the control period ([2]; distal colon): 78.8%
average increase of butyrate ([2]; distal colon): 7.7 mM
average increase of butyrate as compared to the control period ([2]; proximal colon): 91.9%
average increase of butyrate ([2]; proximal colon): 7.4 mM
fecal corticosterone levels after FST (C57BL/6J mice [3]): statistical reduction
final fat as a percentage of baseline (C57BL/6J mice [4]; 60 mg/kg/d): statistically reduced
final fat as a percentage of baseline (C57BL/6J mice [4]; 200 mg/kg/d): statistically reduced
Lean:Fat ratio (C57BL/6J mice [4]; treated mice vs untreated control): significantly increased
tryptophan in feces (C57BL/6J mice [5]; high dose (200 mg/kg/d), 8 weeks post-treatment): 142.8 ± 53.4 ng/mg
Indole-3-acetic acid in feces (C57BL/6J mice [5]; [14]): 1.56 ± 1.17 ng/mg
tryptophan in feces (C57BL/6J mice [5]; [14]): 154.9 ± 98.7 ng/mg
fecal SCFA levels (C57BL/6J mice [5]; treated mice vs untreated stressed controls): No differences
IL6, treatment suspensions normalized to blank control suspensions [6, 15]: 1.13
IL10, treatment suspensions normalized to blank control suspensions [6, 15]: 1.03
IL-1B, treatment suspensions normalized to blank control suspensions [6, 15]: 1.07
MCP1, treatment suspensions normalized to blank control suspensions [6, 15]: 1.05
IL6, treatment suspensions normalized to blank control suspensions [6, 16]: 1.31
IL8, treatment suspensions normalized to blank control suspensions [6, 16]: 1.03
IL-1B, treatment suspensions normalized to blank control suspensions [6, 16]: 1.08
MCP1, treatment suspensions normalized to blank control suspensions [6, 16]: 0.97
IL6, treatment suspensions normalized to blank control suspensions [6, 17]: 1.01
IL8, treatment suspensions normalized to blank control suspensions [6, 17]: 1.3
IL10, treatment suspensions normalized to blank control suspensions [6, 17]: 1.06
IL-1B, treatment suspensions normalized to blank control suspensions [6, 17]: 1.08
TNFa, treatment suspensions normalized to blank control suspensions [6, 17]: 1.06
time immobile in the FST (C57BL/6J mice [7]; 60 mg/kg/d oral gavage, vs stressed untreated control): reductions in time immobile in the FST were statistically significant
immobility in the FST (C57BL/6J mice [7]; 60 mg/kg, females): reduced immobility
time immobile in the FST (C57BL/6J mice [7]; 200 mg/kg/d oral gavage, vs stressed untreated control and vs unstressed control): reductions in time immobile in the FST were statistically significant
immobility in the FST (C57BL/6J mice [7]; 200 mg/kg, males): reduced immobility
Faecalibacterium prausnitzii abundance ([8]; PC and DC, low and high dose): enriched
Akkermansia muciniphila abundance ([8]; PC and DC, low- and high-dose): enriched
gut microbial diversity (Simpson Diversity Index) ([8]; both low and high dose): increase
ratio of Bacteroidetes:Firmicutes ([8]; distal colon, low and high dose vs control (FIG. 4)): increases
Parabacteroides merdae ATCC 43184 abundance ([8]; proximal colon): specific stimulation
Tannerellaceae levels ([8]; proximal colon): increased
Parabacteroides distasonis abundance [8, 18]: stimulated
Parabacteroides goldsteinii abundance [8, 18]: stimulated
